{"source": "ChEMBL document CHEMBL4834431", "about": "“Design of Dimeric Bile Acid Derivatives as Potent and Selective Human NTCP Inhibitors” (J Med Chem, 2021)", "key": {"Hepatitis B virus": {"test_system": "Hepatitis B virus", "experiment": "Antiviral activity against HBV infected in human HepG2-NTCP cells assessed as reduction in HBeAg secretion incubated for 24 hrs followed replacement with fresh medium and measured at day 5 post infection by ELISA", "format": "functional, organism-based"}, "[1]": {"experiment": "Stability in mouse liver microsomes assessed as half life at 1 uM preincubated for 5 mins followed by NADPH addition and measured upto 60 mins by LC-MS analysis", "format": "ADME, Microsome", "details": "time 65 min"}, "[2]": {"experiment": "Stability in mouse liver microsomes assessed as intrinsic clearance at 1 uM preincubated for 5 mins followed by NADPH addition and measured upto 60 mins by LC-MS analysis", "format": "ADME, Microsome", "details": "time 65 min, read-out: CLH"}, "[3]": {"molecular_target": "T1, Hepatic sodium/bile acid cotransporter (Homo sapiens, UniProt Q14973)", "T1 sequence (Q14973 whole entry)": "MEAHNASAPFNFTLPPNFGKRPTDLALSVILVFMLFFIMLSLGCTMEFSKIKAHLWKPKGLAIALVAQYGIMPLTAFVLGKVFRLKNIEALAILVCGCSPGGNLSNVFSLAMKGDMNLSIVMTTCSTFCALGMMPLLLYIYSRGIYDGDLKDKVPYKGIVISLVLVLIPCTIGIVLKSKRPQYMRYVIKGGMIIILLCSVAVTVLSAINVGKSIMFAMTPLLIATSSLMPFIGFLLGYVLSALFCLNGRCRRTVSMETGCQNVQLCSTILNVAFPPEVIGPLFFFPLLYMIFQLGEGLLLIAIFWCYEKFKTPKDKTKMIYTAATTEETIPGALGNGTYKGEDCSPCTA", "experiment": "Inhibition of human NTCP-mediated [3H]-TCA uptake expressed in human HepG2 cells in presence of 20 % FBS", "format": "cell-based"}, "[4]": {"molecular_target": "T1, Hepatic sodium/bile acid cotransporter", "experiment": "Inhibition of human NTCP-mediated [3H]-TCA uptake expressed in human HepG2 cells in presence of 50 % FBS", "format": "cell-based"}, "[5]": {"molecular_target": "T1, Hepatic sodium/bile acid cotransporter", "experiment": "Inhibition of human NTCP-mediated [3H]-TCA uptake expressed in human HepG2 cells pretreated for 2 hrs followed by [3H]-TCA addition in absence of FBS", "format": "cell-based"}, "[6]": {"experiment": "Plasma protein binding in human", "format": "ADME, cell-free", "details": "read-out: PPB"}, "[7]": {"experiment": "Plasma protein binding in mouse", "format": "ADME, cell-free", "details": "read-out: PPB"}, "[8]": {"molecular_target": "T1, Hepatic sodium/bile acid cotransporter", "experiment": "Inhibition of human NTCP-mediated [3H]-TCA uptake expressed in human HepG2 cells in presence of human serum", "format": "cell-based"}, "HepG2": {"test_system": "HepG2", "experiment": "Inhibition of human NTCP-mediated [3H]-TCA uptake expressed in human HepG2 cells in presence of bovine serum", "format": "cell-based", "details": "Bos taurus"}, "[9]": {"molecular_target": "T2, Hepatic sodium/bile acid cotransporter (Mus musculus, UniProt O08705)", "T2 sequence (O08705 whole entry)": "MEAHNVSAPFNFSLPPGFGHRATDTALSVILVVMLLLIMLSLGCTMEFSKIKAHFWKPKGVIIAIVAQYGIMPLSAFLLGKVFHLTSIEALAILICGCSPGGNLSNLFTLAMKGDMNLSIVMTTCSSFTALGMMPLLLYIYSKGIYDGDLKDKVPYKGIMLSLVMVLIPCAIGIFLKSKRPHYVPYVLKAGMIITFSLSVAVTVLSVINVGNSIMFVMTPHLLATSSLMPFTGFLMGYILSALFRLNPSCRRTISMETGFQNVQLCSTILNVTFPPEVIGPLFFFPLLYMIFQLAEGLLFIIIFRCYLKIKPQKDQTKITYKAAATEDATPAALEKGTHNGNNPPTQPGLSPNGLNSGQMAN", "experiment": "Inhibition of mouse NTCP-mediated [3H]-TCA uptake expressed in human HepG2 cells in presence of human serum", "format": "cell-based"}, "[10]": {"molecular_target": "T2, Hepatic sodium/bile acid cotransporter", "experiment": "Inhibition of mouse NTCP-mediated [3H]-TCA uptake expressed in human HepG2 cells in presence of mouse serum", "format": "cell-based"}, "[11]": {"experiment": "Stability in human liver microsomes assessed as half life at 1 uM preincubated for 5 mins followed by NADPH addition and measured upto 60 mins by LC-MS analysis", "format": "ADME, Microsome", "details": "time 65 min"}, "[12]": {"experiment": "Stability in human liver microsomes assessed as intrinsic clearance at 1 uM preincubated for 5 mins followed by NADPH addition and measured upto 60 mins by LC-MS analysis", "format": "ADME, Microsome", "details": "time 65 min, read-out: CLH"}, "[13]": {"experiment": "Half life in ip dosed C57B/L mouse by LC/MS analysis", "format": "ADME, organism-based", "details": "in vivo"}, "[14]": {"experiment": "Bioavailability in ip dosed C57B/L mouse by LC/MS analysis", "format": "ADME, organism-based", "details": "in vivo"}, "[15]": {"experiment": "Oral bioavailability in C57B/L mouse by LC/MS analysis", "format": "ADME, organism-based", "details": "in vivo"}, "Mus musculus [16]": {"test_system": "Mus musculus", "experiment": "Effect on human NTCP knock-in C57B/L mouse assessed as increase in total bile acid level at 50 mg/kg, ip administered twice daily for 3 days", "format": "functional, organism-based", "details": "time 3.0 day"}, "Mus musculus [17]": {"test_system": "Mus musculus", "experiment": "Effect on wild-type C57B/L mouse assessed as increase in total bile acid level at 50 mg/kg, ip administered twice daily for 3 days", "format": "functional, organism-based", "details": "time 3.0 day"}, "[18]": {"experiment": "Toxicity in C57B/L mouse assessed as effect on ALT level at 50 mg/kg, ip administered twice daily for 3 days", "format": "organism-based", "details": "in vivo, 72 h, time 3 day"}, "[19]": {"experiment": "Toxicity in C57B/L mouse assessed as effect on body weight at 50 mg/kg, ip administered twice daily for 3 days", "format": "organism-based", "details": "in vivo, 72 h, time 3 day"}}, "note": "Calls of active or inactive are those of the source. The rule behind the calls is not given here."}
{"compound": "C[C@@H]1CCC(=O)NC(C(=O)NCCS(=O)(=O)O)CNC(=O)CC[C@@H](C)[C@H]2CC[C@H]3[C@@H]4[C@@H](O)C[C@@H]5C[C@@H](CC[C@]5(C)[C@H]4CC[C@]23C)n2cc(nn2)CO[C@@H]2CC[C@@]3(C)[C@@H](C2)C[C@H](O)[C@@H]2[C@@H]3CC[C@]3(C)[C@@H]1CC[C@@H]23", "note": "(stereo partly specified)", "values": [{"measurement": "IC50", "setting": "Hepatitis B virus", "result": 178, "unit": "nM"}, {"measurement": "half-life at 1 µM", "setting": "[1]", "result": 0.929, "unit": "h"}, {"measurement": "microsomal CLint at 1 µM", "setting": "[2]", "result": 12, "unit": "µL/min/mg"}, {"measurement": "IC50", "setting": "[3]", "result": 54, "unit": "nM"}, {"measurement": "IC50", "setting": "[4]", "result": 81.5, "unit": "nM"}, {"measurement": "IC50", "setting": "[5]", "result": 23.5, "unit": "nM"}, {"measurement": "fraction unbound", "setting": "[6]", "result": 0.01}, {"measurement": "fraction unbound", "setting": "[7]", "result": 0.01}, {"measurement": "inhibition (INH)", "setting": "[8]", "result": "Active"}, {"measurement": "inhibition", "setting": "HepG2", "result": "Active"}, {"measurement": "inhibition (INH)", "setting": "[9]", "result": "Not Active"}, {"measurement": "inhibition (INH)", "setting": "[10]", "result": "Not Active"}, {"measurement": "half-life at 1 µM", "setting": "[11]", "result": 1.89, "unit": "h"}, {"measurement": "microsomal CLint at 1 µM", "setting": "[12]", "result": 6.1, "unit": "µL/min/mg"}, {"measurement": "half-life", "setting": "[13]", "result": 1.6, "unit": "h"}, {"measurement": "bioavailability", "setting": "[14]", "result": 32, "unit": "%"}, {"measurement": "bioavailability", "setting": "[15]", "result": 1.3, "unit": "%"}, {"measurement": "Activity", "setting": "Mus musculus [16]", "result": "Active"}, {"measurement": "Activity", "setting": "Mus musculus [17]", "result": "inactive"}, {"measurement": "Activity", "setting": "[18]", "result": "Non-Toxic"}, {"measurement": "Activity", "setting": "[19]", "result": "Non-Toxic"}]}
